Results: ChEMBL document CHEMBL1128749, “1-Aminoindan-1,5-dicarboxylic acid: a novel antagonist at phospholipase C-linked metabotropic glutamate receptors” (J Med Chem, 1995)

What was measured:
[1] = target: T1, Metabotropic glutamate receptor 2 (Homo sapiens, UniProt Q14416); experiment: Ability to inhibit mGluR2-alpha induced cAMP formation was determined at BHK cells at 100 Micro M Concentration; format: functional, cell-based, Mesocricetus auratus
[2] = target: T2, Metabotropic glutamate receptor 4 (Homo sapiens, UniProt Q14833); experiment: Ability to inhibit mGluR4-alpha induced cAMP formation was determined at BHK cells at 100 Micro M Concentration; format: functional, cell-based, Mesocricetus auratus
[3] = target: T3, Metabotropic glutamate receptor 1 (Homo sapiens, UniProt Q13255); experiment: Ability to inhibit mGluR1-alpha-mediated PI (phospho inositol) hydrolysis was determined at BHK cells at 100 Micro M Concentration; format: functional, cell-based, Mesocricetus auratus
[4] = target: T1, Metabotropic glutamate receptor 2; experiment: Ability to inhibit mGluR2-alpha induced cAMP formation was determined at BHK cells at 100 Micro M Concentration; Not effective at the highest concentration tested (100 uM); format: functional, cell-based, Mesocricetus auratus
[5] = target: T2, Metabotropic glutamate receptor 4; experiment: Ability to inhibit mGluR4-alpha induced cAMP formation was determined at BHK cells at 100 Micro M Concentration; Not effective at the highest concentration tested (100 uM); format: functional, cell-based, Mesocricetus auratus
[6] = target: T3, Metabotropic glutamate receptor 1; experiment: Ability to inhibit mGluR1-alpha-mediated PI (phospho inositol) hydrolysis was determined at BHK cells at 100 Micro M Concentration; Not effective at the highest concentration tested (100 uM); format: functional, cell-based, Mesocricetus auratus
[7] = target: T1, Metabotropic glutamate receptor 2; experiment: Ability to inhibit mGluR2-alpha induced cAMP formation was determined at BHK cells at 100 Micro M Concentration; Not effective at the highest concentration tested (100 µM)

T3 sequence (Q13255 whole entry): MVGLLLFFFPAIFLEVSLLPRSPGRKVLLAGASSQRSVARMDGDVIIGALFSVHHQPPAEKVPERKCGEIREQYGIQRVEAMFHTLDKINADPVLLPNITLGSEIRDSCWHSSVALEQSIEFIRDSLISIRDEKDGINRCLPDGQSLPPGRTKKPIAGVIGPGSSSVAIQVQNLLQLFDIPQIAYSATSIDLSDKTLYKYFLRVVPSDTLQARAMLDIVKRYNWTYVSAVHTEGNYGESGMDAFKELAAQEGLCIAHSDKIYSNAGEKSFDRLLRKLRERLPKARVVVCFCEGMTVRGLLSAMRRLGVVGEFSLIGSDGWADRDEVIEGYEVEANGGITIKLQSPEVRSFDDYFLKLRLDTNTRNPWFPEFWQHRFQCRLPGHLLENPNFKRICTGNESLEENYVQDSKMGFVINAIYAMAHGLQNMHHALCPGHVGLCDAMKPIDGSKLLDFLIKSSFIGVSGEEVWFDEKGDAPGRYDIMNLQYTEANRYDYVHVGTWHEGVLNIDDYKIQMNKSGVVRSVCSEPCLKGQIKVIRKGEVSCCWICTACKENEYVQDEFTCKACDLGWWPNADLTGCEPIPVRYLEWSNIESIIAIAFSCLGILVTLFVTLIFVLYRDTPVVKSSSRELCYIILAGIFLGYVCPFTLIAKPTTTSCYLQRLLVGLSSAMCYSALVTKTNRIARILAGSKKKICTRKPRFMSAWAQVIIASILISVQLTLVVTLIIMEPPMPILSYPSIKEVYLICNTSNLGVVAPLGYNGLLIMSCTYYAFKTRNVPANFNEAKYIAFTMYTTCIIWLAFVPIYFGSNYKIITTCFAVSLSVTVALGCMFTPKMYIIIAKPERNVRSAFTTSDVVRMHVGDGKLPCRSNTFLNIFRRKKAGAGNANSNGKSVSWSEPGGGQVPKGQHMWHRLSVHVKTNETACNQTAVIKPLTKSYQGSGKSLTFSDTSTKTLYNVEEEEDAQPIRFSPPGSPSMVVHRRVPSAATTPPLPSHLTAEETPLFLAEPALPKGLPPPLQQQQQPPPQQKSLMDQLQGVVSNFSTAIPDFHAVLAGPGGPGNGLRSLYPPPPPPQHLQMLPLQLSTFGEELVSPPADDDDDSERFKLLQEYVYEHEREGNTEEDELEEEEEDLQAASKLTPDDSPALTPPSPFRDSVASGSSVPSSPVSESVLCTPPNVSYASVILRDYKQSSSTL
T1 sequence (Q14416 whole entry): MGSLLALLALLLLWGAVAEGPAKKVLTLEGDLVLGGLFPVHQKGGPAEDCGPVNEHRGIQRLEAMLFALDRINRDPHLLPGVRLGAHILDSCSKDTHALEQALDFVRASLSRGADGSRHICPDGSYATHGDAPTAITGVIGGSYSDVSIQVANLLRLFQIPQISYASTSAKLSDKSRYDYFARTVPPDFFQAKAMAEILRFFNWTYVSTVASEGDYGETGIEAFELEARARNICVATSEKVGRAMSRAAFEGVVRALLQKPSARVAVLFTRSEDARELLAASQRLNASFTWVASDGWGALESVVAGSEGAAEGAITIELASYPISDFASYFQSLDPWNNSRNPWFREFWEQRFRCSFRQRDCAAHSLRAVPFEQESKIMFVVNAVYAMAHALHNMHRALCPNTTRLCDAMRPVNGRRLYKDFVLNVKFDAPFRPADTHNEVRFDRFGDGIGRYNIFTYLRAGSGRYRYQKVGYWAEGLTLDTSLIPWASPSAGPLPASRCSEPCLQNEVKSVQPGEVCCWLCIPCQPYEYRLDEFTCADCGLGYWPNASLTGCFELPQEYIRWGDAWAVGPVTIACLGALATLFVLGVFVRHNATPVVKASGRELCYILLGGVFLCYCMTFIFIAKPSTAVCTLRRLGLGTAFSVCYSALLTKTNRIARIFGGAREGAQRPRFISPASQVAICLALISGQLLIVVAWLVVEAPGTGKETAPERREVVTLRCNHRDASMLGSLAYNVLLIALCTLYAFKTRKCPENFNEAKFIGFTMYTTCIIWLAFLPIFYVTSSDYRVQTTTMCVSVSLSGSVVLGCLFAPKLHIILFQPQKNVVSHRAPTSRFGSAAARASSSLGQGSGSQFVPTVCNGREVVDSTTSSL
T2 sequence (Q14833 whole entry): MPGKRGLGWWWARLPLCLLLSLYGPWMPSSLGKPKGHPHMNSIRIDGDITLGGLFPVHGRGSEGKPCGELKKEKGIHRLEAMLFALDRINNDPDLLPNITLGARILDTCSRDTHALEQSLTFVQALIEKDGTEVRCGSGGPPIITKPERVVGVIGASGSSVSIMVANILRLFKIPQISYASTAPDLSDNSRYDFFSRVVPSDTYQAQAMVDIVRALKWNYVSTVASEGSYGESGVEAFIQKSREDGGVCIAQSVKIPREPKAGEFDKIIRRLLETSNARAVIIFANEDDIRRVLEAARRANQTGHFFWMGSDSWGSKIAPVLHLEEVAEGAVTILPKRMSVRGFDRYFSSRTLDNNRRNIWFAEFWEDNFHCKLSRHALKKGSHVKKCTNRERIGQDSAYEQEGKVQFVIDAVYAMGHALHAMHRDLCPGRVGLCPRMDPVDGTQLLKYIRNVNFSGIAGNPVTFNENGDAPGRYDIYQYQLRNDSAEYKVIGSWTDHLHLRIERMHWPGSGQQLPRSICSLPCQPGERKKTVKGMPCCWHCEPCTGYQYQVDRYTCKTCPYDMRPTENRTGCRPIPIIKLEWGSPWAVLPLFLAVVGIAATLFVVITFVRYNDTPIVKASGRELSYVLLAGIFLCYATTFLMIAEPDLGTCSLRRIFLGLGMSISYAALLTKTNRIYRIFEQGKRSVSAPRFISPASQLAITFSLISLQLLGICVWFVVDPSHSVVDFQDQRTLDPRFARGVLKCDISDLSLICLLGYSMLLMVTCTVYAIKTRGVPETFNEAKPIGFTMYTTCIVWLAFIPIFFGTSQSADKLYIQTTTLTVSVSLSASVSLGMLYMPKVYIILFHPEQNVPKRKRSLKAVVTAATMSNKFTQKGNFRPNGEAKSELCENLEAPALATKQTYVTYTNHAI

| SMILES | IC50 [1] | IC50 [2] | IC50 [3] | IC50 [4] | IC50 [5] | IC50 [6] | IC50 [7] |
| --- | --- | --- | --- | --- | --- | --- | --- |
| NC(C(=O)O)c1ccc(C(=O)O)c(O)c1 (stereo not drawn) | 48 µM | > 1000 µM | 40 µM | – | – | – | – |
| NC1(C(=O)O)CCc2cc(C(=O)O)ccc21 (stereo not drawn) | – | – | 7 µM | No effect | No effect | – | – |
| NC1(C(=O)O)CCc2ccc(C(=O)O)cc21 (stereo not drawn) | – | – | – | – | No effect | No effect | No effect |
| CC(N)(C(=O)O)c1ccc(C(=O)O)cc1 (stereo not drawn) | 340 µM | > 1000 µM | 155 µM | – | – | – | – |
| NC(C(=O)O)c1ccc(C(=O)O)cc1 (stereo not drawn) | 577 µM | > 1000 µM | 65 µM | – | – | – | – |
| NC1(C(=O)O)CCc2c(C(=O)O)cccc21 (stereo not drawn) | – | – | – | No effect | No effect | No effect | – |
